# According to patent publication US20060223996A1, “IL-12 modulatory compounds” (Synta Pharmaceuticals Corp., priority 2004, published 2006):
# System: IL-12
# Test: Human in vitro assay: inhibition of IL-12 production in IFNγ/LPS- or IFNγ/SAC-stimulated human PBMC or THP-1 cells (ELISA)
# Format: cell-based
# Settings: read-out: IC50 Range (representative in vitro IC50 data)
# Summary of the method: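 PBMC (5×10^5 cells/well) primed with IFNγ 30 U/mL for 22 h then LPS 1 μg/mL, or IFNγ 100 U/mL then SAC 0.01%; THP-1 primed with IFNγ 100 U/mL for 22 h then SAC 0.025%, with compound in 0.25% DMSO. Supernatant IL-12 p70/p40 measured by sandwich ELISA after 18 h; IC50 derived; viability by MTS.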
row,Compound,IC50
1,"Cc1[nH]c2ccc(NC(=O)c3cc(OCC[N+]4([O-])CCOCC4)nc(N4CCOCC4)n3)cc2c1C [Compound 27, 2-Morpholin-4-yl-6-[2-(4-oxy-morpholin-4-yl)-ethoxy]-pyrimidine-4-carboxylic acid (2,3-dimethyl-1H-indol-5-yl)-amide]",< 1000 nM
2,"Nc1cccc(NC(=O)Nc2cc(OCCN3CCOCC3)nc(N3CCOCC3)n2)c1 [Compound 324, 1-(3-Amino-phenyl)-3-[2-morpholin-4-yl-6-(2-morpholin-4-yl-ethoxy)-pyrimidin-4-yl]-urea]",< 1000 nM
3,"COCCN(C)c1cc(C(=O)Nc2ccc3c(c2)OCCO3)nc(N2CCOCC2)n1 [Compound 200, N-(2,3-dihydrobenzo[b][1,4]dioxin-6-yl)-6-((2-methoxyethyl)(methyl)amino)-2-morpholinopyrimidine-4-carboxamide]",≥ 1000 nM
4,"COCCN(C)c1cc(C(=O)Nc2cc(C(C)(C)C)ccc2O)nc(N2CCOCC2)n1 [Compound 225, 6-[(2-Methoxy-ethyl)-methyl-amino]-2-morpholin-4-yl-pyrimidine-4-carboxylic acid (5-tert-butyl-2-hydroxy-phenyl)-amide]",≥ 1000 nM
5,"Cc1cc(C(=O)Nc2ccc3[nH]c(C)c(C)c3c2)nc(N2CCOCC2)n1 [Compound 253, N-(2,3-dimethyl-1H-indol-5-yl)-6-methyl-2-morpholinopyrimidine-4-carboxamide]",< 1000 nM
6,"O=C(Nc1ccc2ncsc2c1)c1cc(OCCc2ccccn2)nc(N2CCOCC2)n1 [Compound 36, 2-Morpholin-4-yl-6-(2-pyridin-2-yl-ethoxy)-pyrimidine-4-carboxylic acid benzothiazol-6-ylamide]",≥ 1000 nM
7,"O=C(Nc1cccc(-n2ccnc2)c1)c1cc(OCCN2CCOCC2)nc(N2CCOCC2)n1 [Compound 305, 2-Morpholin-4-yl-6-(2-morpholin-4-yl-ethoxy)-pyrimidine-4-carboxylic acid (3-imidazol-1-yl-phenyl)-amide]",≥ 1000 nM
8,"COCCN(CCOC)c1cc(C(=O)Nc2ccc3[nH]c(C)c(C)c3c2)nc(N2CCOCC2)n1 [Compound 258, 6-(bis(2-methoxyethyl)amino)-N-(2,3-dimethyl-1H-indol-5-yl)-2-morpholinopyrimidine-4-carboxamide]",< 1000 nM
9,"COCCN(C)c1cc(C(=O)Nc2nc(C(C)(C)C)cs2)nc(N2CCOCC2)n1 [Compound 201, N-(4-tert-butylthiazol-2-yl)-6-((2-methoxyethyl)(methyl)amino)-2-morpholinopyrimidine-4-carboxamide]",≥ 1000 nM
10,"CN(CCO)c1cc(NC(=O)Nc2ccc3[nH]c4c(c3c2)CCCC4)nc(N2CCOCC2)n1 [Compound 326, 1-{6-[(2-Hydroxy-ethyl)-methyl-amino]-2-morpholin-4-yl-pyrimidin-4-yl}-3-(6,7,8,9-tetrahydro-5H-carbazol-3-yl)-urea]",< 1000 nM
11,"CN(C)c1cccc(NC(=O)c2cc(N(C)CC(=O)N3CCCCC3)nc(N3CCOCC3)n2)c1 [Compound 116, 6-[Methyl-(2-oxo-2-piperidin-1-yl-ethyl)-amino]-2-morpholin-4-yl-pyrimidine-4-carboxylic acid (3-dimethylamino-phenyl)-amide]",< 1000 nM
12,"O=C(Oc1ccc2[nH]ccc2c1)c1cc(OCCc2ccccn2)nc(N2CCOCC2)n1 [Compound 72, 2-Morpholin-4-yl-6-(2-pyridin-2-yl-ethoxy)-pyrimidine-4-carboxylic acid 1H-indol-5-yl ester]",≥ 1000 nM
13,"COC(=O)CNc1cc(C(=O)Nc2ccc3[nH]c(C)c(C)c3c2)nc(N2CCOCC2)n1 [Compound 97, [6-(2,3-Dimethyl-1H-indol-5-ylcarbamoyl)-2-morpholin-4-yl-pyrimidin-4-ylamino]-acetic acid methyl ester]",< 1000 nM
14,"COCCN(C)c1cc(C(=O)Nc2cc(C(C)(C)C)on2)nc(N2CCOCC2)n1 [Compound 228, 6-[(2-Methoxy-ethyl)-methyl-amino]-2-morpholin-4-yl-pyrimidine-4-carboxylic acid (5-tert-butyl-isoxazol-3-yl)-amide]",≥ 1000 nM
15,"O=C(Nc1ccc2[nH]c3c(c2c1)CCCC3)c1cc(OCCc2cccc[n+]2[O-])nc(N2CCOCC2)n1 [Compound 322, 2-Morpholin-4-yl-6-[2-(1-oxy-pyridin-2-yl)-ethoxy]-pyrimidine-4-carboxylic acid (6,7,8,9-tetrahydro-5H-carbazol-3-yl)-amide]",< 1000 nM
16,"O=C(Nc1cccc(O)c1)C(=O)Nc1cc(OCCc2ccccn2)nc(N2CCOCC2)n1 [Compound 86, N-(3-Hydroxy-phenyl)-N′-[2-morpholin-4-yl-6-(2-pyridin-2-yl-ethoxy)-pyrimidin-4-yl]-oxalamide]",≥ 1000 nM
17,"O=C(Nc1ccc(C(F)(F)F)cc1)c1cc(NCCN2CCOCC2)nc(N2CCOCC2)n1 [Compound 191, 2-morpholino-6-(2-morpholinoethylamino)-N-(4-(trifluoromethyl)phenyl)pyrimidine-4-carboxamide]",≥ 1000 nM

row,Compound,IC50
1,"CCc1cccc(NC(=O)Nc2cc(OCCN3CCOCC3)nc(N3CCOCC3)n2)c1 [Compound 131, 1-(3-Ethyl-phenyl)-3-[2-morpholin-4-yl-6-(2-morpholin-4-yl-ethoxy)-pyrimidin-4-yl]-urea]",< 1000 nM
2,"Cc1[nH]c2ccc(NC(=O)c3cc(N4CCOCC4)nc(N4C[C@@H](C)O[C@@H](C)C4)n3)cc2c1C [Compound 281, 2-(2,6-Dimethyl-morpholin-4-yl)-6-morpholin-4-yl-pyrimidine-4-carboxylic acid (2,3-dimethyl-1H-indol-5-yl)-amide]",< 1000 nM
3,"Cc1c(C)n(C)c2ccc(NC(=O)c3cc(OCCN4CCOCC4)cc(N4CCOCC4)n3)cc12 [Compound 146, 6-Morpholin-4-yl-4-(2-morpholin-4-yl-ethoxy)-pyridine-2-carboxylic acid (1,2,3-trimethyl-1H-indol-5-yl)-amide]",< 1000 nM
4,"Cc1[nH]c2ccc(NC(=O)c3cc(N(C)CC(=O)N4CCCCC4)nc(N4CCOCC4)n3)cc2c1C [Compound 113, 6-[Methyl-(2-oxo-2-piperidin-1-yl-ethyl)-amino]-2-morpholin-4-yl-pyrimidine-4-carboxylic acid (2,3-dimethyl-1H-indol-5-yl)-amide]",< 1000 nM
5,"CCCCN(CCCC)c1cc(C(=O)Nc2ccc3[nH]c(C)c(C)c3c2)nc(N2CCOCC2)n1 [Compound 92, 6-Dibutylamino-2-morpholin-4-yl-pyrimidine-4-carboxylic acid (2,3-dimethyl-1H-indol-5-yl)-amide]",< 1000 nM
6,"Cc1[nH]c2ccc(NC(=O)c3cc(NCC(=O)N4CCCCC4)nc(N4CCOCC4)n3)cc2c1C [Compound 109, 2-Morpholin-4-yl-6-(2-oxo-2-piperidin-1-yl-ethylamino)-pyrimidine-4-carboxylic acid (2,3-dimethyl-1H-indol-5-yl)-amide]",< 1000 nM
7,"Cc1cccc(NC(=O)Nc2cc(OCC(C)(C)O)nc(N3CCOCC3)n2)c1 [Compound 11, 1-[6-(2-Hydroxy-2-methyl-propoxy)-2-morpholin-4-yl-pyrimidin-4-yl]-3-m-tolyl-urea]",≥ 1000 nM
8,"Cc1cccc(NC(=O)CNc2cc(C(=O)Nc3ccc4[nH]c(C)c(C)c4c3)nc(N3CCOCC3)n2)c1 [Compound 111, 2-Morpholin-4-yl-6-[(m-tolylcarbamoyl-methyl)-amino]-pyrimidine-4-carboxylic acid (2,3-dimethyl-1H-indol-5-yl)-amide]",< 1000 nM
9,"Cc1[nH]c2ccc(NC(=O)c3cc(OCC(C)(C)O)nc(N4CCOCC4)n3)cc2c1C [Compound 314, 6-(2-Hydroxy-2-methyl-propoxy)-2-morpholin-4-yl-pyrimidine-4-carboxylic acid (2,3-dimethyl-1H-indol-5-yl)-amide]",< 1000 nM
10,"O=C(Nc1ccc2ccccc2c1)Nc1cc(N2CCOCC2)nc(OCCN2CCOCC2)n1 [Compound 124, 1-[6-Morpholin-4-yl-2-(2-morpholin-4-yl-ethoxy)-pyrimidin-4-yl]-3-naphthalen-2-yl-urea]",≥ 1000 nM
11,"Cc1ccc(NC(=O)c2cc(OCCN3CCOCC3)nc(N3CCOCC3)n2)cc1N(C)C [Compound 290, 2-Morpholin-4-yl-6-(2-morpholin-4-yl-ethoxy)-pyrimidine-4-carboxylic acid (3-dimethylamino-4-methyl-phenyl)-amide]",< 1000 nM
12,"COCCN(C)c1cc(C(=O)Nc2ccc3nc(C)c(C)nc3c2)nc(N2CCOCC2)n1 [Compound 241, 6-[(2-Methoxy-ethyl)-methyl-amino]-2-morpholin-4-yl-pyrimidine-4-carboxylic acid (2,3-dimethyl-quinoxalin-6-yl)-amide]",≥ 1000 nM
13,"N#Cc1cccc(NC(=O)Nc2cc(OCCN3CCOCC3)nc(N3CCOCC3)n2)c1 [Compound 127, 1-(3-Cyano-phenyl)-3-[2-morpholin-4-yl-6-(2-morpholin-4-yl-ethoxy)-pyrimidin-4-yl]-urea]",< 1000 nM
14,"COCCN(C)c1cc(C(=O)NCCN(C)C)nc(N2CCOCC2)n1 [Compound 162, 6-[(2-Methoxy-ethyl)-methyl-amino]-2-morpholin-4-yl-pyrimidine-4-carboxylic acid (2-dimethylamino-ethyl)-amide]",≥ 1000 nM
15,"Cc1c(C)n(C)c2ccc(NC(=O)c3cc(N4CCOCC4)nc(N4CCOCC4)n3)cc12 [Compound 283, 2,6-Di-morpholin-4-yl-pyrimidine-4-carboxylic acid (1,2,3-trimethyl-1H-indol-5-yl)-amide]",< 1000 nM
16,"CCN(C)c1cccc(NC(=O)c2cc(OCCN3CCOCC3)nc(N3CCOCC3)n2)c1 [Compound 312, 2-Morpholin-4-yl-6-(2-morpholin-4-yl-ethoxy)-pyrimidine-4-carboxylic acid [3-(ethyl-methyl-amino)-phenyl]-amide]",< 1000 nM
17,"COCCN(C)c1cc(N2CCOCC2)cc(C(=O)Nc2cccc(N(C)C)c2)n1 [Compound 157, 6-[(2-Methoxy-ethyl)-methyl-amino]-4-morpholin-4-yl-pyridine-2-carboxylic acid (3-dimethylamino-phenyl)-amide]",≥ 1000 nM
